The record followed here is patent US8889699B2, “5-fluorouracil derivative” (Delta-Fly Pharma, Inc., priority 2009, dated 2014).

Read-outs that look alike come from different tables or passages of the source.

One data set relates to sarcoma 180 cells. The data set can be described thus: Inhibition of intracellular phosphorylation of 5-FU in cancer cells. Conditions: for inhibition at 10 µM / inhibition at 100 µM: Mus musculus, Sarcoma-180, 0.5 h. It is filed as cell-based, mouse. On the procedure: (§1) • (a) Test liquid preparation 1: Compound I-2 or I-10 of the present invention was dissolved to a concentration of 1 mM in cold physiological saline. The resulting product was further diluted 10-fold with physiological saline, yielding a 100-μM solution. • (b) Test liquid preparation 2: As an OPRT inhibitor, which inhibits the phosphorylation of 5-FU, citrazinic acid (Citra.A.) was dissolved to a concentration of 1 mM in cold physiological saline, and further diluted 10-fold with physiological saline, yielding a 100-μM solution. • (c) Preparation of cancer cell suspension: Ascites-type sarcoma 180 cells were preliminarily transplanted intraperitoneally into an ICR mouse and proliferated therein for use in the test as raw (intact) cells. The proliferated cells were isolated and then washed with physiological saline. […] Immediately after the completion of the reaction, 4 mL of a cold Hanks solution was added to the reaction solution, and the cells were washed and separated by centrifugation. After this procedure was repeated twice, 2 mL of a cold 5% trichloroacetic acid (TCA) solution was added to the cell pellet to disrupt the cells, and 5-FU and its nucleotide metabolites were extracted. Subsequently, a portion of the nucleic acid extract was applied to a silica gel 60F254 plate and developed with a mixed liquid comprising chloroform-methanol-acetic acid (17:3:1) to isolate the nucleotide moiety. The radioactivity thereof was measured and the concentration of 5-FU phosphorylation was measured.
as §1, with “1: Compounds I-9, I-11, I-12, and I-13” for “1: Compound I-2 or I-10”, “invention were separately” for “invention was”, “saline. Each of the” for “saline. The”, “resulting products” for “resulting product”, “acid” for “acid (Citra.A.)”

The subject of data set [1] is human gastric cancer strain (SC-2). Conditions: 14 days, day 15; for Average weight change (%) / Tumor proliferation inhibition ratio (%): Test Example 3. How it is done: The resulting product was stirred with a stirrer at room temperature for about 10 minutes. […] Thereafter, ultrasonic treatment was performed under ice cooling for about 5 minutes, thereby obtaining a BOF-A2 drug liquid to be used at a dose of 14 mg/kg/day, 21 mg/kg/day, or 28 mg/kg/day. • (f) Experiment: The human gastric cancer strain (SC-2) was subcutaneously transplanted into the back of a BALB/cA-nu mouse and preliminarily proliferated therein. The proliferated strain was extracted, cut into about 2 mm square pieces with scissors in physiological saline, and subcutaneously inoculated to the right axillary region of mice of the same strain, 5 to 6 weeks of age, using a transplantation needle. […] Then, drug administration was initiated from the next day. Each of the test liquids shown in (a) to (e) above was administered orally to the mice in each of the test drug groups using a sonde for oral administration at a dose of 0.1 ml per 10 g body weight once a day for 14 continuous days. In the same manner as the above, the cancer-bearing mice in the control group were subjected to oral administration of only 0.5% HPMC liquid for 14 continuous days.
The tumor volume of each mouse in each group before the initiation of the treatment, on day 3, day 5, day 8 (1 week after), day 11, and day 15 (2 weeks after), i.e., after termination of the administration, was calculated using Equation 1 below, and respective relative tumor volume (RTV) relative to the tumor volume at the time of initiation of the treatment was calculated. In relation to the antitumor effect, the average value of the tumor proliferation inhibition ratio (IR; %) was calculated from the average tumor volume of each treatment group on day 15 (after termination of the treatment) relative to that of the control group on day 15, using Equation 2. […] Along therewith, a weight change ratio was calculated from the body weight of the mice at the time of the termination of the drug administration relative to the body weight of the mice at the time of the initiation of the administration, using Equation 3. […] Tumor volume(mm^3)=(major axis)×(minor axis)^2×½ Equation 1: Tumor proliferation inhibition ratio(IR, %)=[1−(average tumor volume of treatment group)/(average tumor volume of control group)]×100 Equation 2: Average weight change ratio(%)=[(average weight on Day 15)−(average weight on Day 1)]/(average weight on Day 1)×100 Equation 3: […]
The resulting product was stirred with a stirrer at room temperature for about 10 minutes. […] The proliferated strain was extracted, cut into about 2 mm square pieces with scissors in physiological saline, and subcutaneously inoculated to the right axillary region of mice of the same strain, 5 to 6 weeks of age, using a transplantation needle. […] Then, drug administration was initiated from the next day. Each of the test liquids shown in (a) to (c) above was administered orally to the mice in each of the test drug groups using a sonde for oral administration at a dose of 0.1 ml per 10 g body weight once a day for 14 continuous days. In the same manner as the above, the cancer-bearing mice in the control group were subjected to oral administration of only 0.5% HPMC liquid for 14 continuous days.
The tumor volume of each mouse in each group before the initiation of the treatment, on day 3, day 5, day 8 (1 week after), day 11, and day 15 (2 weeks after), i.e., after termination of the administration, was calculated using Equation 1 below, and respective relative tumor volume (RTV) relative to the tumor volume at the time of initiation of the treatment was calculated. In relation to the antitumor effect, the average value of the tumor proliferation inhibition ratio (IR; %) was calculated from the average tumor volume of each treatment group on day 15 (after termination of the treatment) relative to that of the control group on day 15, using Equation 2.

The mark [2] stands for this setting: Conc. 10 μM, 30 min. Incubation, 5-FU 2 μM, Table 6.
Where [3] appears, read: Conc. 10 μM, 30 min, Table 3 run with control 60.93.
[4] abbreviates: Conc. 10 μM, 30 min, Table 3 run with control 63.32.
Where [5] appears, read: Conc. 100 μM, 30 min. Incubation, 5-FU 2 μM, Table 6.
[6] abbreviates: Conc. 100 μM, 30 min, Table 3 run with control 60.93.
[7] abbreviates: Conc. 100 μM, 30 min, Table 3 run with control 63.32.
Where [8] appears, read: Conc. 10 μM, 30 min. Incubation, 5-FU 2 μM, Table 6, read-out: Inhibition (%) of phosphorylation of 5-FU.
Where [9] appears, read: Conc. 10 μM, 30 min, Table 3 run with control 60.93, read-out: % Inhibition of 5-FU phosphorylation.
Where [10] appears, read: Conc. 10 μM, 30 min, Table 3 run with control 63.32, read-out: % Inhibition of 5-FU phosphorylation.
[11] abbreviates: Conc. 100 μM, 30 min. Incubation, 5-FU 2 μM, Table 6, read-out: Inhibition (%) of phosphorylation of 5-FU.
[12] abbreviates: Conc. 100 μM, 30 min, Table 3 run with control 60.93, read-out: % Inhibition of 5-FU phosphorylation.
[13] abbreviates: Conc. 100 μM, 30 min, Table 3 run with control 63.32, read-out: % Inhibition of 5-FU phosphorylation.
The mark [14] stands for this setting: concentration of 100 μM, reaction for 30 minutes, read-out: percent inhibition of intracellular phosphorylation of 5-FU.
[15] abbreviates: concentration of 10 μM, reaction for 30 minutes, read-out: percent inhibition of intracellular phosphorylation of 5-FU.

Consider `O=C(O)c1cc(O)nc(O)c1` [Citra. A., citrazinic acid, reference compound], for which the “RNA Fraction” value with sarcoma 180 cells (setting [2]) was determined as 62.19 pmol/1 × 10^7 cells; with sarcoma 180 cells (setting [5]), 60.13 pmol/1 × 10^7 cells. For the same compound, the F-nucleotides in the data set on sarcoma 180 cells (setting [3]) turned out to be 55.78 pmol/1 × 10^7 cells; in the data set with sarcoma 180 cells (setting [4]), 62.19 pmol/1 × 10^7 cells; in the data set on sarcoma 180 cells (setting [6]), 51.72 pmol/1 × 10^7 cells; in the data set with sarcoma 180 cells (setting [7]), 60.13 pmol/1 × 10^7 cells. Moreover, the inhibition at 10 µM is 1.8% with sarcoma 180 cells (setting [8]), 8.5% in the data set with sarcoma 180 cells (setting [9]) and 1.8% in the data set on sarcoma 180 cells (setting [10]). Further, the inhibition at 100 µM is 5% with sarcoma 180 cells (setting [11]), 15.1% in the data set with sarcoma 180 cells (setting [12]), 5.1% in the data set with sarcoma 180 cells (setting [13]) and 5 to 15% in the data set on sarcoma 180 cells (setting [14]).

On to `CCOCn1cc(F)c(=O)n(C(=O)c2cccc(C(=O)Oc3cc(OC(=O)c4cc(O)nc(O)c4)c(Cl)cn3)c2)c1=O` [Compound I-2, 3-{3-[4-(2,6-dihydroxyisonicotinoyloxy)-5-chloro-2-pyridyloxycarbonyl]benzoyl}-1-ethoxymethyl-5-fluorouracil], for which the figures for the F-nucleotides with sarcoma 180 cells (setting [3]) and in the data set with sarcoma 180 cells (setting [6]) were 47.26 pmol/1 × 10^7 cells and 28.88 pmol/1 × 10^7 cells, respectively. The inhibition at 10 µM was 22.4% with sarcoma 180 cells (setting [9]) and 20 to 30% with sarcoma 180 cells (setting [15]). Further, the inhibition at 100 µM in the data set with sarcoma 180 cells (setting [12]) is 52.6%; in the data set on sarcoma 180 cells (setting [14]), 50 to 60%. For the same compound, the “Average weight change (%)” value in data set [1] (15.0 mg/kg/day oral) is reported as −1.13%; in data set [1] (22.5 mg/kg/day oral), −4.18%; in data set [1] (30.0 mg/kg/day oral), 1.76%. Moreover, the “Tumor proliferation inhibition ratio (%)” value in data set [1] (15.0 mg/kg/day oral) is 41.1%; in data set [1] (22.5 mg/kg/day oral), 56.0%; in data set [1] (30.0 mg/kg/day oral), 67.9%.

Turning to `CCOCn1cc(F)c(=O)n(C(=O)c2cccc(C(=O)Oc3cc(OC(=O)c4cc(OC(=O)C5CCCC5)nc(OC(=O)C5CCCC5)c4)c(Cl)cn3)c2)c1=O` [Compound I-9, 3-{3-[4-(2,6-dicyclopentanecarbonyloxyisonicotinoyloxy)-5-chloro-2-pyridyloxycarbonyl]benzoyl}-1-ethoxymethyl-5-fluorouracil], the “RNA Fraction” value with sarcoma 180 cells (setting [2]) is 27.42 pmol/1 × 10^7 cells; in the data set with sarcoma 180 cells (setting [5]), 23.61 pmol/1 × 10^7 cells. Moreover, the results for the inhibition at 10 µM in the data set on sarcoma 180 cells (setting [8]) and in the data set on sarcoma 180 cells (setting [15]) were 56.7% and 35 to 57%, respectively. For the same compound, the inhibition at 100 µM is 62.7% in the data set with sarcoma 180 cells (setting [11]) and 56 to 63% in the data set on sarcoma 180 cells (setting [14]). For the same compound, the “BWC (% initial)” value in data set [1] (49.5 mg/kg oral, Test Example 6) was “+4.67 % initial”. The “IR (%)” value in data set [1] (49.5 mg/kg oral, equivalent to 12.5 mg/kg of S-1, Test Example 6) stood at 29.5%.

On to `CCOCn1cc(F)c(=O)n(C(=O)c2cccc(C(=O)Oc3cc(OC(=O)c4cc(OC(C)=O)nc(OC(C)=O)c4)c(Cl)cn3)c2)c1=O` [Compound I-10, 3-{3-[4-(2,6-diacetyloxyisonicotinoyloxy)-5-chloro-2-pyridyloxycarbonyl]benzoyl}-1-ethoxymethyl-5-fluorouracil], for which the F-nucleotides with sarcoma 180 cells (setting [4]) is recorded as 40.71 pmol/1 × 10^7 cells; in the data set on sarcoma 180 cells (setting [7]) it was 27.62 pmol/1 × 10^7 cells. Besides, the inhibition at 10 µM was 35.7% in the data set on sarcoma 180 cells (setting [10]) and 20 to 30% in the data set with sarcoma 180 cells (setting [15]). In addition, the inhibition at 100 µM was 56.4% in the data set on sarcoma 180 cells (setting [13]) and 50 to 60% with sarcoma 180 cells (setting [14]). For the same compound, the “Average weight change (%)” value is 1.97% in data set [1] (25.7 mg/kg/day oral), −0.05% in data set [1] (34.2 mg/kg/day oral) and −4.31% in data set [1] (42.8 mg/kg/day oral). The “Tumor proliferation inhibition ratio (%)” value in data set [1] (25.7 mg/kg/day oral) worked out at 31.9%; in data set [1] (34.2 mg/kg/day oral), 51.0%; in data set [1] (42.8 mg/kg/day oral) it was 57.7%.
